Assay results reported in publication PMC12430443, “Discovery of Novel Benzamide-Based Sigma-1 Receptor Agonists with Enhanced Selectivity and Safety” (Molecules, 2025).

Legend:
CYP2C19 = biological target: T1, CYP2C19 (Homo sapiens, UniProt P33261); test: CYP inhibition in human liver microsomes; assay type: in vitro ADME; conditions: n = 2, read-out: CYP inhibition 2C19
T1 construct: tissue Eurofins Cerep (assay provider); host or cells: human liver microsomes
Description: (§1) Microsomal stability was evaluated using human liver microsomes at 10 µM (Table 3). […] Since cytochrome P450 (CYP) enzymes—especially families 1 to 3—play major roles in drug metabolism, CYP inhibition was tested against the human isoforms CYP1A, 2B6, 2C8, 2C9, 2C19, 2D6, and 3A, as recommended by FDA and EMA guidelines. […] Membrane transport proteins, including the ATP-binding cassette (ABC) and solute carrier (SLC) families, affect drug pharmacokinetics and potential drug–drug interactions. The inhibitory effects of compounds 2 and 6 were assessed against five ABC transporters (P-gp, BCRP, MRP1, MRP2, and MRP3) and seven SLC transporters (OAT1, OAT3, OATP1B1, OCT1, OCT2, ASBT, and NTCP).
(§2) Standardized in vitro ADME experiments were performed by Eurofins Cerep (Poitiers, France). Solubility assays were performed in PBS at pH 7.4, but also in simulated gastric fluid (SGF) and intestinal fluid (SIF), through the classical shake-flask method described by Lipinski et al., using HPLC-UV/VIS technology. The results were expressed in µM. The compound was classically evaluated at 10 µM for all of the ADME analyses. Bidirectional permeability (apical A to basolateral B pH 6.5/7.4, and basolateral B to apical A pH 7.4/6.5) was assessed in the epithelial colorectal adenocarcinoma cell line (Caco-2 cell line). The results were expressed as ×10^−6 cm/s (Papp) and as % recovery. The efflux ratio, i.e., Papp (B→A)/Papp(A→B), was calculated. Plasma protein binding was analyzed by HPLC-MS/MS after 4 h of incubation at 37 °C, as described by Banker et al.. Concentration was evaluated by LC/MS-MS. CYP inhibition was performed in human liver microsomes as described in [28]. Analysis of the respective metabolites was performed by HPLC-MS/MS. Transporter inhibition analysis was also performed in overexpressing cell lines. Respective metabolites for each specific transporter substrate were analyzed by fluorometry or scintillation counting, and % inhibition of control values were calculated. P-glycoprotein transporter substrate assessment was performed by bidirectional permeability analysis (apical A to basolateral B pH 7.4/7.4, and basolateral B to apical A pH 7.4/7.4) in the Caco-2 cell line with and without verapamil, as described in [26]. The results were expressed as ×10^−6 cm/s (Papp) and as % recovery. The efflux ratio was calculated as Papp(B→A)/Papp(A→B). CYP450 induction was assessed in human hepatocytes by measuring the mRNA levels of seven CYP isoforms via qPCR, as described in [40]. The compound was tested at 1, 10, and 100 μM, and fold-induction values were compared with predefined cut-off thresholds for each isoform and hepatocyte lot.

CYP2D6 = biological target: T2, CYP2D6 (Homo sapiens, UniProt P10635); test: CYP inhibition in human liver microsomes; assay type: in vitro ADME; conditions: n = 2, read-out: CYP inhibition 2D6
T2 construct: tissue Eurofins Cerep (assay provider); host or cells: human liver microsomes
T2 sequence (P10635 whole entry): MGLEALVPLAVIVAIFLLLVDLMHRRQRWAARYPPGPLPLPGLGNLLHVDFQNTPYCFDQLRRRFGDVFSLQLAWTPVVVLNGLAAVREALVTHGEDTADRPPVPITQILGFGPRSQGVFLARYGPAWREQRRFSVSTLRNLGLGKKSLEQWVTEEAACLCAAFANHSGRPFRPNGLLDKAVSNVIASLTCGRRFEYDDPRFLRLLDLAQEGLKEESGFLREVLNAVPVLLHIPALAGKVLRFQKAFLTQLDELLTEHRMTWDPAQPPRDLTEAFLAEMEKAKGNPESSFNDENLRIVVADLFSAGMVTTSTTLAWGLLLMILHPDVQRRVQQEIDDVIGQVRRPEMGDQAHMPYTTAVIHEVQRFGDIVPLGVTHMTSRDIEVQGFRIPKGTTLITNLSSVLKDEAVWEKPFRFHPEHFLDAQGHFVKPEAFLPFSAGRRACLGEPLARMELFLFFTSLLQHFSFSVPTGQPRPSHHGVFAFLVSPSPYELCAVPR
Description: as §1, §2

CYP2B6 = biological target: T3, CYP2B6 (Homo sapiens, UniProt P20813); test: CYP inhibition in human liver microsomes; assay type: in vitro ADME; conditions: n = 2, read-out: CYP inhibition 2B6
T3 construct: tissue Eurofins Cerep (assay provider); host or cells: human liver microsomes
T3 sequence (P20813 whole entry): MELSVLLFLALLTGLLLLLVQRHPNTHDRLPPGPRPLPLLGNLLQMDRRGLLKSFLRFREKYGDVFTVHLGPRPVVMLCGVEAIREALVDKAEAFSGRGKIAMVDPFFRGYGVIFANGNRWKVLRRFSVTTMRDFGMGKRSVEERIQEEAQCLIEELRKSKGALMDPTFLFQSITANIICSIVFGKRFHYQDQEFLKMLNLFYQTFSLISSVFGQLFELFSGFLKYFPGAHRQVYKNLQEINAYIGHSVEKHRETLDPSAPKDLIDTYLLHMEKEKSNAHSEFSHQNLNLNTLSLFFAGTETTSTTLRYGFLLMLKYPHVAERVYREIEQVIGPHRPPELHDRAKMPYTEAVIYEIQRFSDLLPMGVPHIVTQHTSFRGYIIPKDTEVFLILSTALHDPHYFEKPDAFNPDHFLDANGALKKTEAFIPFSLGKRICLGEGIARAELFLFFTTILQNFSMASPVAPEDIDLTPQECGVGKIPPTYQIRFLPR
Description: as §1, §2

CYP1A = test: CYP inhibition in human liver microsomes; assay type: in vitro ADME; conditions: n = 2, read-out: CYP inhibition 1A
Description: as §1, §2

CYP2C8 = biological target: T4, CYP2C8 (Homo sapiens, UniProt P10632); test: CYP inhibition in human liver microsomes; assay type: in vitro ADME; conditions: n = 2, read-out: CYP inhibition 2C8
T4 construct: tissue Eurofins Cerep (assay provider); host or cells: human liver microsomes
T4 sequence (P10632 whole entry): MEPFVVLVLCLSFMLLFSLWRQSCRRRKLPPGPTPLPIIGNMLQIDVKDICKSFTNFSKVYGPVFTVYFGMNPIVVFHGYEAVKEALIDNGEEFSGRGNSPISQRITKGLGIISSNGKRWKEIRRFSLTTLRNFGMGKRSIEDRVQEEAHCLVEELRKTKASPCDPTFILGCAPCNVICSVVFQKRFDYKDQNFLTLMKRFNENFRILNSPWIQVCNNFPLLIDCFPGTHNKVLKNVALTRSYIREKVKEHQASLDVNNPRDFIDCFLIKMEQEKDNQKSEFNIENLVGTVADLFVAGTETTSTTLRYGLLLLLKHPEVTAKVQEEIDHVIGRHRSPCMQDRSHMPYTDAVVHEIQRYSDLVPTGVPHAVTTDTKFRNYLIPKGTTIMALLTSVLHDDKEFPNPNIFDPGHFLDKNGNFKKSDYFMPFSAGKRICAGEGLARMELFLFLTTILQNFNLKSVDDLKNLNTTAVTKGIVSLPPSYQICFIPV
Description: as §1, §2

CYP3A = test: CYP inhibition in human liver microsomes; assay type: in vitro ADME; conditions: n = 2, read-out: CYP inhibition 3A
Description: as §1, §2

CYP2C9 = biological target: T5, CYP2C9 (Homo sapiens, UniProt P11712); test: CYP inhibition in human liver microsomes; assay type: in vitro ADME; conditions: n = 2, read-out: CYP inhibition 2C9
T5 construct: tissue Eurofins Cerep (assay provider); host or cells: human liver microsomes
T5 sequence (P11712 whole entry): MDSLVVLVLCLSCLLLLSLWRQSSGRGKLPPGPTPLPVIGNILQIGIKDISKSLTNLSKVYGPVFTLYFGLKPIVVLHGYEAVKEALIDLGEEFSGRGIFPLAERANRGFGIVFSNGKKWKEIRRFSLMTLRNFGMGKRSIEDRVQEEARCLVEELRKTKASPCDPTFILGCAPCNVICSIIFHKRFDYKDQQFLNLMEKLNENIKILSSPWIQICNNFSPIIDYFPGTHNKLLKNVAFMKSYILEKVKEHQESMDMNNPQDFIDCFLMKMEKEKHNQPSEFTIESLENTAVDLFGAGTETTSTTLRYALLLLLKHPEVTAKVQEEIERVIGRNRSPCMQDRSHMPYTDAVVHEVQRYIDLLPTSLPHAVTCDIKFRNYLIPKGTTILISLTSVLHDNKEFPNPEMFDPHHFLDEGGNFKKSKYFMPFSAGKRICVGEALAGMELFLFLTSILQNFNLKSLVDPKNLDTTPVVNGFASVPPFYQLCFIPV
Description: as §1, §2

[1] = Bidirectional permeability in Caco-2 cells; assay type: in vitro ADME; conditions: human; for Papp A→B at 10 µM / Papp B→A at 10 µM: pH 7.4, 10 µM; for Papp A→B at 10 µM: n = 2, read-out: Permeability A/B pH7.4/7.4; for Papp B→A at 10 µM: n = 2, read-out: Permeability B/A pH7.4/7.4; for efflux ratio at 10 µM: read-out: e-ratio
Description: Solubility and stability remained unchanged in simulated gastric fluid (SGF) and simulated intestinal fluid (SIF), which mimic gastrointestinal digestion. Intestinal permeability was assessed using a two-chamber system with apical (A, pH 6.5) and basolateral (B, pH 7.4) compartments, representing the luminal and blood/mesenteric lymph sides of the gastrointestinal tract, respectively. […] The efflux ratios for both compounds ranged between 1 and 2, indicating improved permeability relative to the reference compound 1.
as §2

S1R = biological target: T6, S1R (Homo sapiens, UniProt Q99720); test: S1R competitive radioligand binding, [3H](+)-pentazocine, Jurkat cell membranes; conditions: for IC50: [3H]-(+)-pentazocine displacement, n = 2; for Ki (S2R)/ Ki (S1R): selectivity ratio S2R/S1R
T6 construct: For the S1R assay, Jurkat cell membranes (10–20 μg protein/tube) were incubated at 37 °C for 2 h; host or cells: Jurkat cell membranes
T6 sequence (Q99720 whole entry): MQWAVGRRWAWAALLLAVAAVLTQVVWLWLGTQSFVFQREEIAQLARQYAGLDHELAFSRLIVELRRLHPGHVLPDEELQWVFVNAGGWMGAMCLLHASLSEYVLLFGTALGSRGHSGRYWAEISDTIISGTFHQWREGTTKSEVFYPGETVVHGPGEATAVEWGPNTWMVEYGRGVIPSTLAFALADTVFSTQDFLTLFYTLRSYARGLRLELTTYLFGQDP
Excerpt: S1R and S2R affinities were classically evaluated through competitive binding assays using radioligands, following the protocol described by Ganapathy et al.. The selective radioligand [^3H] (+)-pentazocine was employed as the classic prototypical ligand, selectively binding to the orthosteric S1R-binding sites. […] Jurkat cell membranes served as the receptor source in both assays. The equilibrium dissociation constants (Ki) for S1R and S2R were derived from the IC50 values of each compound, and selectivity ratios (S2R/S1R) were subsequently calculated (Table 1, Figures S2 and S3).
Binding assays were performed by Eurofins Cerep (Poitiers, France) according to the protocol of Ganapathy. […] For the S2R assay, Jurkat cell membranes (10–20 μg protein/tube) were incubated at room temperature for 1 h in the same buffer with [^3H]-DTG (25 nM) in the presence of (+)-pentazocine (1 μM) to saturate S1R, along with a range of test compound concentrations. Bound radioactivity was quantified by liquid scintillation counting. Nonspecific binding was determined under identical conditions in the presence of 10 μM unlabeled haloperidol. The IC50 values (concentration causing a half-maximal inhibition of control-specific binding) and Hill coefficients (nH) were determined by non-linear regression analysis of the competition curves generated with mean replicate values using Hill equation curve-fitting. This analysis was performed using software developed at Cerep (Hill software) and validated by comparison with data generated by the commercial software SigmaPlot ®4.0 for Windows® (©1997 by SPSS Inc.). Inhibition constants (Ki) were calculated from IC50 values using the method of Cheng and Prusoff.

T1 sequence (P33261 whole entry): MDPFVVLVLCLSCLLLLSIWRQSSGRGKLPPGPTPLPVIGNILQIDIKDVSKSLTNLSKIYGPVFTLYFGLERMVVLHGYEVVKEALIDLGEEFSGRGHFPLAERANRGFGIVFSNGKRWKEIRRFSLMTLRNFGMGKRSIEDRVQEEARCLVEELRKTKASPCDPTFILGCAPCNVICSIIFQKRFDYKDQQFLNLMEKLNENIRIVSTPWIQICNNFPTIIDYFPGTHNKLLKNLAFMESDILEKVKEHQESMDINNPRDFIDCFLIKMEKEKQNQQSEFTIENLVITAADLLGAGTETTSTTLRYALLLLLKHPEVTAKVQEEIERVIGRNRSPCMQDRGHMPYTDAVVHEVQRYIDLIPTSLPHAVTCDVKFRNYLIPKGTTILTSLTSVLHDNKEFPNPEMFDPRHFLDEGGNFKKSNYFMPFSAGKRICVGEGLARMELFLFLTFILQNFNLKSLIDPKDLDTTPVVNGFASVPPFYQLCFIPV

Compound: CN(CCC(=O)NCc1cccc(Cl)c1)Cc1ccccc1 [Compound 2, 3-(Benzylmethylamino)-N-(3-chlorobenzyl)propanamide]
- inhibition at 10 µM (CYP2C19): 43.9%
- inhibition at 10 µM (CYP2D6): 80.5%
- inhibition at 10 µM (CYP2B6): 16.9%
- inhibition at 10 µM (CYP1A): 23.3%
- inhibition at 10 µM (CYP2C8): -16.8%
- inhibition at 10 µM (CYP3A): 30.9%
- inhibition at 10 µM (CYP2C9): 13.1%
- Papp A→B at 10 µM [1]: 39 ×10⁻⁶ cm/s
- Papp B→A at 10 µM [1]: 67.4 ×10⁻⁶ cm/s
- efflux ratio at 10 µM [1]: 1.7
- Ki (S1R; [3H](+)-pentazocine, Jurkat cell membranes, mean of 2–3 independent experiments): 0.6 nM
- IC50 (S1R; Jurkat cell membranes): 1.2 nM
- Ki (S2R)/ Ki (S1R) (S1R): 317

Compound: CN(CCC(=O)NCc1ccc(C#N)cc1)Cc1ccccc1 [Compound 6, 3-(Benzylmethylamino)-N-(4-cyanobenzyl)propanamide]
- inhibition at 10 µM (CYP2C19): 30%
- inhibition at 10 µM (CYP2D6): 87.7%
- inhibition at 10 µM (CYP2B6): 17.7%
- inhibition at 10 µM (CYP1A): 13.2%
- inhibition at 10 µM (CYP2C8): -12.1%
- inhibition at 10 µM (CYP3A): 17.4%
- inhibition at 10 µM (CYP2C9): 10%
- Papp A→B at 10 µM [1]: 49.8 ×10⁻⁶ cm/s
- Papp B→A at 10 µM [1]: 60.9 ×10⁻⁶ cm/s
- efflux ratio at 10 µM [1]: 1.2
- IC50 (S1R; Jurkat cell membranes): 11 nM
- Ki (S2R)/ Ki (S1R) (S1R): 331
